Data: US20090074886A1, “GSK-3 INHIBITORS” (Novartis Vaccines and Diagnostics Inc., priority 2003, published 2009)

Tests used:
3T3-L1 preadipocyes = conditions: cited from earlier work
ST2 cells = assay: Osteogenesis of multipotential ST2 cells, Alizarin Red-S staining for mineralization; format: cell-based; conditions: 3 μM on days 0 and 2 vs DMSO control; Alizarin Red-S stain on day 10; FIG. 1B
Procedure: FIG. 1B. Multipotential ST2 cells were induced to undergo osteogenesis as described (Hankenson and Bornstein 2002). On days 0 and 2, cells were treated with DMSO (control) or 3 μM CHIR99021 6-[(2-{[4-(2,4-dichlorophenyl)-5-(4-methylimidazol-2-yl)pyrimidin-2-yl]amino}ethyl)amino]pyridine-3-carbonitrile (Chiron Corporation, Emeryville, Calif.). On day 10, cells were stained with Alizarin Red-S for mineralization.

SMILES: Cc1c[nH]c(-c2cnc(NCCNc3ccc(C#N)cn3)nc2-c2ccc(Cl)cc2Cl)n1 [CHIR99021, 6-[(2-{[4-(2,4-dichlorophenyl)-5-(4-methylimidazol-2-yl)pyrimidin-2-yl]amino}ethyl)amino]pyridine-3-carbonitrile]
- Wnt signaling in vitro (3T3-L1 preadipocyes): mimic Wnt signaling
- adipocyte conversion (3T3-L1 preadipocyes; in vitro): blocking adipocyte conversion
- osteoblastogenesis and mineralization of bipotential ST2 cells (ST2 cells): increases osteoblastogenesis and mineralization
